Experimental data from patent US8871722B2, “Perhydrolase epitopes” (Danisco US Inc., priority 2005, dated 2014).

Test system: human CD4+ T-cells

Molecule: QLIFEGGEQKTTELA (listed as Mycobacterium smegmatis) [SEQ ID NO:53]
- identification of peptide T-cell epitope (significant response in donor pool) (5 μM peptide, human donors): one peptide of interest was identified

Molecule: tetanus toxoid [reference compound]
- positive control proliferative response (tetanus toxoid at approximately 5 Lf/mL): robust positive control responses

B1: perhydrolase: wild-type M. smegmatis perhydrolase enzyme, amino acid sequence SEQ ID NO:2 (protein, listed as Mycobacterium smegmatis)
chain: MAKRILCFGDSLTWGWVPVEDGAPTERFAPDVRWTGVLAQQLGADFEVIEEGLSARTTNIDDPTDPRLNGASYLPSCLATHLPLDLVIIMLGTNDTKAYFRRTPLDIALGMSVLVTQVLTSAGGVGTTYPAPKVLVVSPPPLAPMPHPWFQLIFEGGEQKTTELARVYSALASFMKVPFFDAGSVISTDGVDGIHFTEANNRDLGVALAEQVRSLL
- structure index value (relative immunogenicity) (scale 0 to 2, the closer to 2.0 the more immunogenic): < 0.5
